Inconclusive results and toxic doses are left out. How the source made its calls: active means survival T/C of 150% or more; inactive means T/C below 125% in these data.
Tested on: CD2F1 mice, L1210 leukemia ip, survival T/C
Test: NCI In Vivo Anticancer Drug Screen. Data for tumor model L1210 Leukemia (intraperitoneal) in CD2F1 (CDF1) mice
Settings: higher = longer survival
Procedure, shortened: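 Antitumor effect is scored in animals hosting a serially transplanted tumor. Values compare compound-dosed animals against vehicle-only controls as a simple quotient.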

[1] = endpoint: mean survival time, dose: 100.0 mg/kg/injection, schedule: Q04DX003 (ip), vehicle: saline with Tween-80
[2] = endpoint: mean survival time, dose: 200.0 mg/kg/injection, schedule: Q04DX003 (ip), vehicle: saline with Tween-80
[3] = endpoint: mean survival time, dose: 400.0 mg/kg/injection, schedule: Q04DX003 (ip), vehicle: saline with Tween-80
[4] = endpoint: mean survival time, dose: 50.0 mg/kg/injection, schedule: Q01DX009 (ip), vehicle: saline with Tween-80
[5] = endpoint: mean survival time, dose: 100.0 mg/kg/injection, schedule: Q01DX001 (ip), vehicle: saline with Tween-80
[6] = endpoint: mean survival time, dose: 200.0 mg/kg/injection, schedule: Q01DX001 (ip), vehicle: saline with Tween-80
[7] = endpoint: mean survival time, dose: 400.0 mg/kg/injection, schedule: Q01DX001 (ip), vehicle: saline with Tween-80
[8] = endpoint: mean survival time, dose: 100.0 mg/kg/injection, schedule: Q01DX009 (ip), vehicle: saline with Tween-80
[9] = endpoint: mean survival time, dose: 200.0 mg/kg/injection, schedule: Q01DX009 (ip), vehicle: saline with Tween-80
[10] = endpoint: mean survival time, dose: 100.0 mg/kg/injection, schedule: Q01DX009 (ip), vehicle: saline
[11] = endpoint: mean survival time, dose: 200.0 mg/kg/injection, schedule: Q01DX009 (ip), vehicle: saline
[12] = endpoint: mean survival time, dose: 50.0 mg/kg/injection, schedule: Q01DX001 (ip), vehicle: saline with Tween-80
[13] = endpoint: mean survival time, dose: 400.0 mg/kg/injection, schedule: Q01DX009 (ip), vehicle: saline with Tween-80

Measured: T/C

C[n+]1c(-c2cccc(-c3ccccc3)c2)c2cc([N+](=O)[O-])ccc2c2ccccc21
inactive: endpoint: mean survival time, dose: 1.56 mg/kg/injection, schedule: Q01DX009 (ip), vehicle: Klucel (hydroxypropylcellulose) (HPC) 93 % of control | endpoint: mean survival time, dose: 3.13 mg/kg/injection, schedule: Q01DX009 (ip), vehicle: Klucel (hydroxypropylcellulose) (HPC) 94 % of control | endpoint: mean survival time, dose: 6.25 mg/kg/injection, schedule: Q01DX009 (ip), vehicle: Klucel (hydroxypropylcellulose) (HPC) 98 % of control | endpoint: mean survival time, dose: 12.5 mg/kg/injection, schedule: Q01DX009 (ip), vehicle: Klucel (hydroxypropylcellulose) (HPC) 92 % of control | endpoint: mean survival time, dose: 25.0 mg/kg/injection, schedule: Q01DX009 (ip), vehicle: Klucel (hydroxypropylcellulose) (HPC) 96 % of control | endpoint: mean survival time, dose: 25.0 mg/kg/injection, schedule: Q01DX009 (ip), vehicle: water 97 % of control

BrC1=CC2C3C=CC(c4ccccc43)C12 (centres undefined)
inactive: [1] 95 % of control | [2] 95 % of control | [3] 96 % of control

COc1cc(OC)c(NC(=O)Nc2cc(C)on2)cc1Cl
inactive: endpoint: mean survival time, dose: 12.5 mg/kg/injection, schedule: Q01DX009 (ip), vehicle: saline with Tween-80 98 % of control | endpoint: mean survival time, dose: 25.0 mg/kg/injection, schedule: Q01DX009 (ip), vehicle: saline with Tween-80 92 % of control | [4] 95 % of control

CCN(CC)C(=O)C(C)C1CCC2C3CC=C4CC(OC(=O)c5cc([N+](=O)[O-])cc([N+](=O)[O-])c5)CCC4(C)C3CCC12C (centres undefined)
inactive: [5] 94 % of control | [6] 94 % of control | [7] 98 % of control

Nc1cccc(CCc2ccc(-c3nc4ncnc(N)c4[nH]3)cc2)c1
inactive: [5] 86 % of control | [6] 88 % of control | [7] 93 % of control

OCCN=Cc1c[nH]c2ccccc12
inactive: [5] 95 % of control | [6] 106 % of control | [7] 103 % of control

C=C(NC(C)=O)C(=O)O
inactive: [5] 96 % of control | [8] 103 % of control | [6] 97 % of control | [9] 89 % of control | [7] 97 % of control

CC[C@H]1CN2CCc3cc(OC)c(OC)cc3[C@@H]2C[C@@H]1C[C@H]1NCCc2cc(O)c(OC)cc21
inactive: endpoint: mean survival time, dose: 0.5 mg/kg/injection, schedule: Q01DX015 (ip), vehicle: saline 107 % of control | endpoint: mean survival time, dose: 1.0 mg/kg/injection, schedule: Q01DX015 (ip), vehicle: saline 110 % of control | endpoint: mean survival time, dose: 2.0 mg/kg/injection, schedule: Q01DX015 (ip), vehicle: saline 122 % of control | endpoint: mean survival time, dose: 8.0 mg/kg/injection, schedule: Q01DX015 (ip), vehicle: saline 115 % of control | endpoint: mean survival time, dose: 16.0 mg/kg/injection, schedule: Q01DX015 (ip), vehicle: saline 89 % of control

COc1cc(OC)c(NC(=O)OCCON2CCNC2=O)cc1Cl
inactive: [4] 90 % of control | [8] 90 % of control | [9] 97 % of control

CN1C2CCC1C(CCl)C(O)C2 (centres undefined)
inactive: endpoint: mean survival time, dose: 50.0 mg/kg/injection, schedule: Q01DX009 (ip), vehicle: saline 97 % of control | [10] 104 % of control | [11] 101 % of control

CCc1c(Br)c(CC)c(Br)c(CC)c1Br
inactive: [1] 98 % of control | [2] 97 % of control | [3] 98 % of control

Cc1ccc(/C=N/NC(=O)CNC(=O)Nc2cccc([N+](=O)[O-])c2)cc1
inactive: [4] 92 % of control | [8] 88 % of control

O=S(=O)(O)O.[Fe]
inactive: endpoint: mean survival time, dose: 50.0 mg/kg/injection, schedule: Q01DX009 (ip), vehicle: saline sonified 86 % of control | [1] 96 % of control | [2] 88 % of control

O=C1c2ccccc2C(=O)N1c1ccc(Br)cc1
inactive: endpoint: mean survival time, dose: 100.0 mg/kg/injection, schedule: Q01DX001 (ip), vehicle: Klucel (hydroxypropylcellulose) (HPC) 100 % of control | endpoint: mean survival time, dose: 400.0 mg/kg/injection, schedule: Q01DX001 (ip), vehicle: Klucel (hydroxypropylcellulose) (HPC) 96 % of control

CC(=N\NC(=O)c1ccccc1)/C(C)=N/NC(=O)c1ccccc1
inactive: [1] 90 % of control | [2] 86 % of control | [3] 90 % of control

CC(=O)OC1CCC2C3CCC4=C(Cl)C(=O)CCC4C3CCC12C (centres undefined)
inactive: endpoint: mean survival time, dose: 100.0 mg/kg/injection, schedule: Q04DX003 (sc), vehicle: steriod suspending solution 98 % of control | endpoint: mean survival time, dose: 200.0 mg/kg/injection, schedule: Q04DX003 (sc), vehicle: steriod suspending solution 97 % of control | endpoint: mean survival time, dose: 400.0 mg/kg/injection, schedule: Q04DX003 (sc), vehicle: steriod suspending solution 106 % of control

O=C(Nc1ccc([N+](=O)[O-])cc1Cl)OCCc1ccccn1
inactive: [4] 90 % of control | [5] 98 % of control | [1] 93 % of control | [6] 95 % of control | [2] 95 % of control | [7] 93 % of control | [3] 90 % of control

O=c1[nH]c2cc3ccccc3cc2c(=O)o1
inactive: [1] 92 % of control | [2] 88 % of control | [3] 98 % of control

CCC1CCC(NC(C)=O)CC1 (centres undefined)
inactive: [5] 96 % of control

C1=C(c2ccccc2)NN=C(c2ccccc2)C1c1ccccc1 (centres undefined)
inactive: endpoint: mean survival time, dose: 1.56 mg/kg/injection, schedule: Q01DX001 (ip), vehicle: saline with Tween-80 103 % of control | endpoint: mean survival time, dose: 1.56 mg/kg/injection, schedule: Q01DX009 (ip), vehicle: saline with Tween-80 98 % of control | endpoint: mean survival time, dose: 3.13 mg/kg/injection, schedule: Q01DX001 (ip), vehicle: saline with Tween-80 101 % of control | endpoint: mean survival time, dose: 3.13 mg/kg/injection, schedule: Q01DX009 (ip), vehicle: saline with Tween-80 102 % of control | endpoint: mean survival time, dose: 6.25 mg/kg/injection, schedule: Q01DX001 (ip), vehicle: saline with Tween-80 94 % of control | endpoint: mean survival time, dose: 6.25 mg/kg/injection, schedule: Q01DX009 (ip), vehicle: saline with Tween-80 98 % of control | [12] 87 % of control

CCCCCCCCN(c1ccc(C(=O)NC(CCC(=O)OCC)C(=O)OCC)cc1)S(=O)(=O)c1ccc(C)cc1 (centres undefined)
inactive: endpoint: mean survival time, dose: 12.5 mg/kg/injection, schedule: Q04DX003 (ip), vehicle: saline with Tween-80 94 % of control | endpoint: mean survival time, dose: 25.0 mg/kg/injection, schedule: Q04DX003 (ip), vehicle: saline with Tween-80 100 % of control | endpoint: mean survival time, dose: 50.0 mg/kg/injection, schedule: Q04DX003 (ip), vehicle: saline with Tween-80 102 % of control | [1] 86 % of control | [2] 86 % of control | [3] 87 % of control

OC1C=CC2CC1C2 (centres undefined)
inactive: [1] 95 % of control | [2] 98 % of control | [3] 98 % of control

Oc1ccccc1/C=N\Nc1ccccc1
inactive: [10] 98 % of control | [11] 98 % of control | endpoint: mean survival time, dose: 400.0 mg/kg/injection, schedule: Q01DX009 (ip), vehicle: saline 102 % of control

N/C(=N/N=C/c1ccc(O)cc1)N[N+](=O)[O-]
inactive: endpoint: mean survival time, dose: 100.0 mg/kg/injection, schedule: Q04DX003 (ip), vehicle: Klucel (hydroxypropylcellulose) (HPC) 92 % of control | endpoint: mean survival time, dose: 200.0 mg/kg/injection, schedule: Q04DX003 (ip), vehicle: Klucel (hydroxypropylcellulose) (HPC) 86 % of control | endpoint: mean survival time, dose: 400.0 mg/kg/injection, schedule: Q04DX003 (ip), vehicle: Klucel (hydroxypropylcellulose) (HPC) 92 % of control

O=C(O)c1cc(Cl)c(Cl)cn1
inactive: [12] 97 % of control | [5] 98 % of control | [6] 103 % of control

CCCCCCCCCCNCCS
inactive: endpoint: mean survival time, dose: 5.0 mg/kg/injection, schedule: Q01DX009 (ip), vehicle: saline with Tween-80 104 % of control | endpoint: mean survival time, dose: 20.0 mg/kg/injection, schedule: Q01DX009 (ip), vehicle: saline with Tween-80 93 % of control

OCCN=Cc1cccs1
inactive: [8] 101 % of control | [9] 95 % of control | [13] 110 % of control

O=C1CCCCCCC(=O)CCCCCC1
inactive: endpoint: mean survival time, dose: 12.5 mg/kg/injection, schedule: Q04DX002 (ip), vehicle: saline with Tween-80 105 % of control | endpoint: mean survival time, dose: 25.0 mg/kg/injection, schedule: Q04DX002 (ip), vehicle: saline with Tween-80 101 % of control | endpoint: mean survival time, dose: 50.0 mg/kg/injection, schedule: Q04DX002 (ip), vehicle: saline with Tween-80 105 % of control

Nn1c(=O)[nH][nH]c1=O
inactive: [8] 96 % of control | [1] 93 % of control | [9] 96 % of control | [2] 93 % of control | [13] 98 % of control | [3] 98 % of control

CC1(C)CC(=O)C2=C(C1)OC1=C(C(=O)CC(C)(C)C1)C2c1ccccc1Cl
inactive: [1] 102 % of control | [2] 100 % of control | [3] 104 % of control

O=C1OC(c2ccccc2)(c2ccccc2)c2ccc3ccccc3c21
inactive: [1] 96 % of control | [2] 93 % of control | [3] 90 % of control

Cc1cc2c(C(C)C)c(O)c(O)c(C=O)c2c(O)c1-c1c(C)cc2c(C(C)C)c(O)c(O)c(C=O)c2c1O
inactive: endpoint: median survival time, dose: 6.25 mg/kg/injection, schedule: Q01DX009 (ip), vehicle: saline with Tween-80 110 % of control | endpoint: median survival time, dose: 12.5 mg/kg/injection, schedule: Q01DX009 (ip), vehicle: saline with Tween-80 101 % of control

N#CCCn1c2ccccc2c2ccccc21
inactive: [1] 98 % of control | [2] 94 % of control | [3] 94 % of control

— PubChem BioAssay AID256 (DTP/NCI, 2004)
